Test results reported in PubChem BioAssay AID1259407 (Chemical Carcinogenesis Research Information System (CCRIS), 2018).
Active and inactive are the calls of the source. How the calls were made is not given here.

System: CCRIS mutagenicity, Ames/micronucleus/aberration tests
Assay: CCRIS mutagenicity studies
[1] = Test System: AMES SALMONELLA TYPHIMURIUM, Strain/Indicator: TA98, Metabolic Activation: NONE, Method: PREINCUBATION
[2] = Test System: AMES SALMONELLA TYPHIMURIUM, Strain/Indicator: TA100, Metabolic Activation: NONE, Method: PREINCUBATION
[3] = Test System: AMES SALMONELLA TYPHIMURIUM, Strain/Indicator: TA98, Metabolic Activation: NONE, Method: STANDARD PLATE
[4] = Test System: AMES SALMONELLA TYPHIMURIUM, Strain/Indicator: TA100, Metabolic Activation: NONE, Method: STANDARD PLATE

Measured: mutagenic call

O=C(CCCN1CC=C(n2c(=O)[nH]c3ccccc32)CC1)c1ccc(F)cc1
inactive: End Point: IN VITRO CHROMOSOMAL ABERRATIONS, Test System: HUMAN LYMPHOCYTES, Metabolic Activation: NONE inactive; negative

Cc1ccccc1C#N
inactive: Test System: AMES SALMONELLA TYPHIMURIUM, Strain/Indicator: TA97, Metabolic Activation: HAMSTER, LIVER, S-9, AROCLOR 1254 (10 OR 30%), Method: PREINCUBATION inactive; negative | Test System: AMES SALMONELLA TYPHIMURIUM, Strain/Indicator: TA97, Metabolic Activation: NONE, Method: PREINCUBATION inactive; negative | Test System: AMES SALMONELLA TYPHIMURIUM, Strain/Indicator: TA97, Metabolic Activation: RAT, LIVER, S-9, AROCLOR 1254 (10%), Method: PREINCUBATION inactive; negative | Test System: AMES SALMONELLA TYPHIMURIUM, Strain/Indicator: TA97, Metabolic Activation: RAT, LIVER, S-9, AROCLOR 1254 (30%), Method: PREINCUBATION inactive; negative | Test System: AMES SALMONELLA TYPHIMURIUM, Strain/Indicator: TA98, Metabolic Activation: HAMSTER, LIVER, S-9, AROCLOR 1254 (10 OR 30%), Method: PREINCUBATION inactive; negative | [1] inactive; negative | Test System: AMES SALMONELLA TYPHIMURIUM, Strain/Indicator: TA98, Metabolic Activation: RAT, LIVER, S-9, AROCLOR 1254 (10 OR 30%), Method: PREINCUBATION inactive; negative | Test System: AMES SALMONELLA TYPHIMURIUM, Strain/Indicator: TA100, Metabolic Activation: HAMSTER, LIVER, S-9, AROCLOR 1254 (10 OR 30%), Method: PREINCUBATION inactive; negative | [2] inactive; negative | Test System: AMES SALMONELLA TYPHIMURIUM, Strain/Indicator: TA100, Metabolic Activation: RAT, LIVER, S-9, AROCLOR 1254 (10%), Method: PREINCUBATION inactive; negative | Test System: AMES SALMONELLA TYPHIMURIUM, Strain/Indicator: TA100, Metabolic Activation: RAT, LIVER, S-9, AROCLOR 1254 (30%), Method: PREINCUBATION inactive; negative | Test System: AMES SALMONELLA TYPHIMURIUM, Strain/Indicator: TA1535, Metabolic Activation: HAMSTER, LIVER, S-9, AROCLOR 1254 (10 OR 30%), Method: PREINCUBATION inactive; negative | Test System: AMES SALMONELLA TYPHIMURIUM, Strain/Indicator: TA1535, Metabolic Activation: NONE, Method: PREINCUBATION inactive; negative | Test System: AMES SALMONELLA TYPHIMURIUM, Strain/Indicator: TA1535, Metabolic Activation: RAT, LIVER, S-9, AROCLOR 1254 (10%), Method: PREINCUBATION inactive; negative | Test System: AMES SALMONELLA TYPHIMURIUM, Strain/Indicator: TA1535, Metabolic Activation: RAT, LIVER, S-9, AROCLOR 1254 (30%), Method: PREINCUBATION inactive; negative | Test System: Mouse lymphoma, Strain/Indicator: L5178Y (tk+/tk-), Metabolic Activation: None, Method: Suspension/plate inactive; negative
active: Test System: MOUSE LYMPHOMA, Strain/Indicator: L5178Y (TK+/TK-), Metabolic Activation: RAT, LIVER, S-9, AROCLOR 1254, Method: SUSPENSION/PLATE active; positive. reevaluation of results: positive

Clc1cnc(Oc2ccc(Oc3ncc(Cl)cc3Cl)cc2)c(Cl)c1
inactive: [3] inactive; negative | Test System: AMES SALMONELLA TYPHIMURIUM, Strain/Indicator: TA98, Metabolic Activation: RAT, LIVER, S-9, PHENOBARBITAL AND 5,6-BENZOFLAVONE, Method: STANDARD PLATE inactive; negative | Test System: AMES SALMONELLA TYPHIMURIUM, Strain/Indicator: TA98, Method: STANDARD PLATE inactive; negative | [4] inactive; negative | Test System: AMES SALMONELLA TYPHIMURIUM, Strain/Indicator: TA100, Metabolic Activation: RAT, LIVER, S-9, PHENOBARBITAL AND 5,6-BENZOFLAVONE, Method: STANDARD PLATE inactive; negative | Test System: AMES SALMONELLA TYPHIMURIUM, Strain/Indicator: TA100, Method: STANDARD PLATE inactive; negative | Test System: AMES SALMONELLA TYPHIMURIUM, Strain/Indicator: TA102, Metabolic Activation: NONE, Method: STANDARD PLATE inactive; negative | Test System: AMES SALMONELLA TYPHIMURIUM, Strain/Indicator: TA102, Metabolic Activation: RAT, LIVER, S-9, PHENOBARBITAL AND 5,6-BENZOFLAVONE, Method: STANDARD PLATE inactive; negative | Test System: AMES SALMONELLA TYPHIMURIUM, Strain/Indicator: TA102, Method: STANDARD PLATE inactive; negative

C[C@H](Br)C(=O)NCc1ccccc1
active: [4] active; positive

CC(=O)Nc1ccc(S(=O)(=O)Nc2ccccn2)cc1
inactive: [1] inactive; negative | Test System: AMES SALMONELLA TYPHIMURIUM, Strain/Indicator: TA98, Metabolic Activation: RAT, LIVER, S-9, AROCLOR 1254, Method: PREINCUBATION inactive; negative | [2] inactive; negative | Test System: AMES SALMONELLA TYPHIMURIUM, Strain/Indicator: TA100, Metabolic Activation: RAT, LIVER, S-9, AROCLOR 1254, Method: PREINCUBATION inactive; negative

CCC(CCOCn1cc[n+](C)c1/C=N/O)[N+](=O)[O-] (configuration not stated)
inactive: Test System: AMES SALMONELLA TYPHIMURIUM, Strain/Indicator: TA97, Metabolic Activation: NONE, Method: STANDARD PLATE inactive; negative | Test System: AMES SALMONELLA TYPHIMURIUM, Strain/Indicator: TA97, Metabolic Activation: S-9, Method: STANDARD PLATE inactive; negative | [3] inactive; negative | Test System: AMES SALMONELLA TYPHIMURIUM, Strain/Indicator: TA98, Metabolic Activation: S-9, Method: STANDARD PLATE inactive; negative | [4] inactive; negative | Test System: AMES SALMONELLA TYPHIMURIUM, Strain/Indicator: TA100, Metabolic Activation: S-9, Method: STANDARD PLATE inactive; negative | Test System: AMES SALMONELLA TYPHIMURIUM, Strain/Indicator: TA104, Metabolic Activation: NONE, Method: STANDARD PLATE inactive; negative | Test System: AMES SALMONELLA TYPHIMURIUM, Strain/Indicator: TA104, Metabolic Activation: S-9, Method: STANDARD PLATE inactive; negative | Test System: AMES SALMONELLA TYPHIMURIUM, Strain/Indicator: TA1535, Metabolic Activation: NONE, Method: STANDARD PLATE inactive; negative | Test System: AMES SALMONELLA TYPHIMURIUM, Strain/Indicator: TA1535, Metabolic Activation: S-9, Method: STANDARD PLATE inactive; negative | Test System: AMES SALMONELLA TYPHIMURIUM, Strain/Indicator: TA1537, Metabolic Activation: NONE, Method: STANDARD PLATE inactive; negative | Test System: AMES SALMONELLA TYPHIMURIUM, Strain/Indicator: TA1537, Metabolic Activation: S-9, Method: STANDARD PLATE inactive; negative | Test System: AMES SALMONELLA TYPHIMURIUM, Strain/Indicator: TA1538, Metabolic Activation: NONE, Method: STANDARD PLATE inactive; negative | Test System: AMES SALMONELLA TYPHIMURIUM, Strain/Indicator: TA1538, Metabolic Activation: S-9, Method: STANDARD PLATE inactive; negative

N[C@H](CSSC[C@@H](N)C(=O)O)C(=O)O
active: Test System: AMES SALMONELLA TYPHIMURIUM, Strain/Indicator: TA98, Metabolic Activation: RAT LIVER S-9, CHLOROPHENE, Method: STANDARD PLATE (COMPOUND HEATED AT 250 DEGREES CELSIUS FOR 20 MIN) active; positive
